Entries after “also recorded” stand apart in the source; their conditions may differ.
Assays:
Concanavalin A (Con A) = Concanavalin A (Con A) (Canavalia ensiformis, UniProt P02866); experiment: Con A aggregation / shelf-life at pH 6.5 and 37° C.; format: physicochemical; details: for Con A t95/t95, 0 (Shelf-Life Extension Factor): isotonic concentrations, 40 mM sodium phosphate pH 6.5, 37° C., time for 5% loss of protein vs no additive
Description: This Shelf-Life Extension Factor was determined by comparing the length of time, t95, for a 5% loss of protein when in the presence of the compounds to the original length of time, t95,0 for a 5% loss. For comparison purposes, isotonic concentrations (as determined by VPO) of the compounds were used and Shelf-Life Extension Factor values for commonly used excipients at isotonic concentrations are shown as well. Shelf-life values of aCgn were determined at 52.5° C. and at 37° C. for Con A.

[1] = molecular target: T1, α-chymotrypsinogen A (aCgn) (Bos taurus, UniProt P00766); experiment: aCgn aggregation (monomer loss) at 52.5° C. by size exclusion HPLC; format: physicochemical, Bovine; details: for aCgn t95/t95, 0 (Shelf-Life Extension Factor): isotonic concentrations, 20 mM sodium citrate pH 5, 52.5° C., time for 5% loss of protein vs no additive; for aCgn aggregation suppression compared with other salt forms / generations (FIG. 5, 6, 8): 10 mg/mL aCgn, pH 5, 52.5° C.; for rate of aCgn monomer loss compared to the reference solution: additive 0.05 M
Description: The aggregation of aCgn was accelerated by incubating samples at an elevated temperature. […] In addition to all aggregation experiments being conducted at that temperature, all samples contained 10 mg/mL aCgn, held at pH 5.0 using a 20 mM sodium citrate buffer. 50 μL aliquots of each protein-cosolute mixture were placed in 0.2 mL polymerase chain reaction (PCR) tubes and then incubated in a Bio-Rad Mycycler thermal cycler with a timer initiated when the thermal cycler reached the desired temperature. Each series contained 12 samples and up to 8 different mixtures were tested at the same time during any given experiment. Samples were removed periodically and immediately placed in an ice bath to quench the aggregation reaction. The length of each experiment was planned so that the extent of reaction was such that at least 20% of the protein aggregated, making changes in the rate of aggregation pronounced. After at least five minutes in the ice bath, the samples were briefly spun in a minicentrifuge to remove precipitated aggregates and then transferred to autosampler vials.
All aCgn samples were first treated with phenylmethylsulfonyl fluoride to inhibit residual amounts of active enzyme and, after dialysis, solutions were frozen, rather than lyophilized, in 0.3 mL aliquots and used within 6 months. […] Solutions for the aggregation study were prepared by first preparing a solution of the cosolute of interest in a 20 mM sodium citrate pH 5 buffer at a concentration double that of interest (adjusting the pH to 5 if needed with the appropriate acid or an 8 M sodium hydroxide solution), then mixing 0.3 mL of this solution with 0.3 mL of a thawed aCgn solution. This solution was then divided into twelve aliquots, each 50 μL in volume, and incubated at an elevated temperature, as described below.
15 μL, of each aCgn sample were injected into an Agilent 1200 series HPLC, equipped with a Zorbax GF-250 (4.6×250 mm, 4 micron) size exclusion column and a UV-Vis detector, during a sequence. The HPLC mobile phase contained 25 mM citric acid monohydrate, 25 mM sodium acetate, and 200 mM sodium chloride with the pH adjusted to 4.0 using sodium hydroxide. The flow rate was set at 1 mL/min and samples were monitored at 280 nm.
Peak area at each time point was compared to the peak area for an unstressed sample to create a monomer loss profile normalized with respect to the initial concentration. Each profile was compared to a profile for a sample containing no cosolute to determine the change in aggregation rate upon addition of the cosolute. For a control, each aggregation experimental setup had one protein solution that contained no cosolute to verify that the baseline aggregation rate remained constant amongst all experiments.
The most notable consequence of perturbing a protein's environment is the enhancement or inhibition of protein aggregation. Deyoung L R et al. (1993) Accounts Chem Res 26:614-620; Fink A L (1998) Fold Des 3:R9-R23. The guanidinium-modified dendrimers were added to model protein solutions and incubated at an elevated temperature to determine how they influence the rate of this degradation pathway. […] At low dendrimer concentrations (0.05 M), the rate of monomer loss in the presence of the surface-modified dendrimer is slower than when compared to the reference solution. However, this aggregation rate reduction is insignificant when compared to the rate reduction induced by a high concentration of other commonly used additives such as arginine hydrochloride (ArgHCl), which is also depicted in the figure. Furthermore, as the concentration of the surface-modified dendrimer is increased, the aggregation rate reduction decreases until ultimately, the rate of aggregation is increased. At a concentration of 0.2 M, the surface-modified dendrimer induced rapid aggregation, causing a 50% loss in about 10 minutes as opposed to 30 minutes for the solution containing no cosolute. […]

[2] = Partial molar volume from density measurements of dendrimer only solutions; format: physicochemical
[3] = molecular target: T1, α-chymotrypsinogen A (aCgn); experiment: DSC denaturation midpoint temperature (Tm) of aCgn; format: physicochemical, Bovine
Description: The thermodynamic stability of aCgn in the presence of the arginine salts was determined by DSC (Microcal VP-Differential Scanning calorimeter located in the Biophysical Instrumentation Facility (BIF) at MIT). Each reading began with a minimum of three buffer-buffer up and down scans (in this case, the buffer also contains the cosolute of interest) to establish a reproducible thermal history followed by a single protein-buffer up scan. aCgn was analyzed at a concentration of 1 mg/mL in a 20 mM sodium citrate pH 5 buffer containing the cosolute of interest and a scan rate of 90° C./hour. The data was analyzed in the MicroCal Origin® plotting software. In the analysis, the last buffer-buffer reference scan was first subtracted from the data and then the data was normalized with respect to the protein concentration, cell volume, and scan rate. The baseline (which was progressed through the peak) was then subtracted from the plot and the denaturation midpoint temperature, Tm, was taken as the temperature at the peak maximum of the unfolding event. For each arginine salt, three concentrations (including zero concentration) were tested and Tm values with respect to cosolute concentration were fitted to a linear trend.
The thermostability of aCgn at 1 mg/mL in the presence of the modified dendrimers was assessed by determining the denaturation midpoint temperature (Tm) from DSC scans, which is a qualitative indicator of how the conformational stability of the protein is perturbed. Ghosh K et al. (2009) Proc Natl Acad Sci USA 106:10649-10654.

[4] = molecular target: T1, α-chymotrypsinogen A (aCgn); experiment: Preferential interaction with aCgn by vapor pressure osmometry (VPO); format: physicochemical, Bovine; details: for Γexp preferential interaction coefficient of aCgn: 0.17-[…] dendrimer salt, VPO
Description: Osmolality measurements were carried out according to the previously described procedure. For improved accuracy, all samples were prepared gravimetrically using a Mettler Toledo balance with a precision of 0.1 mg. Partial molar volume values of the
Stock solutions of both BSA and lysozyme and stock solutions of the cosolutes were each prepared in a 40 mM sodium phosphate buffer, pH 6.0 (aCgn measurements were conducted in 20 mM sodium citrate buffer, pH 3.5 or pH 5.0). Stock solutions of the cosolutes were used so that a series of samples could be easily produced with varying solute concentrations by dilution with water and buffer. The protein stock solutions were further purified by placing the solutions under dialysis for 48 hours at room temperature against two changes of buffer (1 L each). […] To determine the concentration, samples of each stock solution were diluted gravimetrically with water to a final optical density of about 1.0 and the concentration determined spectrophotometrically with a PerkinElmer Lambda 35 UV/Vis spectrometer. It should be noted that the protein stock solutions were stored at 4° C. and used within one week of their preparation.
[formula] A Wescor Vapro® vapor pressure osmometer (model 5520) was used for all osmometry measurements. The instrument was calibrated using 0.1, 0.29, and 1 mol/kg osmolality standards provided by Wescor. Due to slight drifts in the calibration points, the instrument was recalibrated after every four measurements and the thermocouple was cleaned daily using concentrated ammonium hydroxide followed by a rinse with HPLC grade water. […] The data sets for each cosolute included at least 16 individually made solutions (both for the sets with and without the protein). Each sample contained approximately 80 μL of solution (40 μL of diluted cosolute stock solution and 40 μL of the protein stock solution). A minimum of three measurements on each solution were made. If the standard deviation for a particular solution was greater than 2 mmol/kg, more measurements were taken or another sample was prepared. For a given solute, data representing the dependence of osmolality on solute molality were fitted by a quadratic equation, with all fitting parameters floated. Data were weighted by the standard deviation of the individual osmolality measurements for the same solution using the nonlinear fitting program Igor Pro.
To gain further insight into how the modified dendrimer salts inhibit protein-protein interactions, preferential interaction coefficient (Γ23) values at various concentrations were determined, both experimentally via vapor pressure osmometry (VPO) measurements and computationally via MD simulations. The experimental results for the interaction between modified generation 0 PAMAM dendrimers and aCgn are expressed in Table 2, which summarizes the polynomial fit and uncertainty of the experimental data. Theoretical preferential interaction coefficient values were computed from the MD simulation using the procedure outlined in our previous work. Baynes B M and Trout B L (2003) J Phys Chem B 107:14058-14067; Shukla D et al. (2009) J Phys Chem B 113:12546-12554.

For Cl.N=C(N)NCCC[C@H](N)C(=O)O [ArgHCl, arginine hydrochloride, reference compound], the “Con A t95/t95, 0 (Shelf-Life Extension Factor)” value (“Con A t95/t95” below) (Concanavalin A (Con A)) was 0.4 and the “aCgn t95/t95, 0 (Shelf-Life Extension Factor)” value (shortened to “aCgn t95/t95”) [1] was 3.3.

With N=C(N)NCCNC(=O)CCN(CCNC(=O)CCN(CCC(=O)NCCN(CCC(=O)NCCNC(=N)N)CCC(=O)NCCNC(=N)N)CCN(CCC(=O)NCCN(CCC(=O)NCCNC(=N)N)CCC(=O)NCCNC(=N)N)CCC(=O)NCCN(CCC(=O)NCCNC(=N)N)CCC(=O)NCCNC(=N)N)CCC(=O)NCCNC(=N)N.O=P(O)(O)O.O=P(O)(O)O.O=P(O)(O)O.O=P(O)(O)O.O=P(O)(O)O.O=P(O)(O)O.O=P(O)(O)O.O=P(O)(O)O.O=P(O)(O)O.O=P(O)(O)O.O=P(O)(O)O.O=P(O)(O)O.O=P(O)(O)O.O=P(O)(O)O [Dend. 1 Gdm(H2PO4)] the “aCgn aggregation suppression compared with other salt forms / generations (FIG. 5, 6, 8)” value [1] was “lower for all concentrations” and the “aCgn t95/t95” value [1] was 16.3.

With N=C(N)NCCNC(=O)CCN(CCNC(=O)CCN(CCC(=O)NCCN(CCC(=O)NCCNC(=N)N)CCC(=O)NCCNC(=N)N)CCN(CCC(=O)NCCN(CCC(=O)NCCNC(=N)N)CCC(=O)NCCNC(=N)N)CCC(=O)NCCN(CCC(=O)NCCNC(=N)N)CCC(=O)NCCNC(=N)N)CCC(=O)NCCNC(=N)N.O=S(=O)(O)O.O=S(=O)(O)O.O=S(=O)(O)O.O=S(=O)(O)O.O=S(=O)(O)O.O=S(=O)(O)O.O=S(=O)(O)O [Dend. 1 Gdm(SO4)1/2] the “Con A t95/t95” value (Concanavalin A (Con A)) was 16.7, the “Con A t95/t95” value (Concanavalin A (Con A); listed as generation 1 dendrimer with a guanidinium sulfate surface) was “greater than 15” and the “Con A t95/t95” value (Concanavalin A (Con A); listed as sulfate form of the generation 1 modified dendrimer) was 16.7. The “Con A shelf-life, times longer than with glycerol or sucrose” value (Concanavalin A (Con A); pH 6.5, 37° C.) was “over 10 times”.

With Cl.Cl.Cl.Cl.Cl.Cl.N=C(N)NCCNC(=O)CCN(CCC(=O)NCCNC(=N)N)CCN(CCC(=O)NCCNC(=N)N)CCC(=O)NCCNC(=N)N [GdmCl, Generation 0 Polyamidoamine (PAMAM) dendrimer with a surface modified to guanidinium] the “V0 partial molar volume at infinite dilution” value [2] was 0.5217 L/mol, the “rate of aCgn monomer loss compared to the reference solution” value [1] was “slower” and the “time for 50% loss of aCgn monomer” value ([1]; additive 0.2 M, no cosolute 30 minutes) was “about 10 minutes”. The “rate of lowering the melting temperature of aCgn relative to ordinary GdmCl” value [3] was “double”, the “dTm/d[3] aCgn denaturation midpoint temperature increment” value ([3]; 1 mg/mL aCgn, 20 mM sodium citrate pH 5, maximum dendrimer 0.2 mol/L) was −13.9 K * L/mol and the “rate of decrease of Tm of aCgn” value ([3]; concentrations less than 0.2 mol/L) was 13.9 ° C.*M^−1. The “Γ23/[3] preferential interaction with aCgn” value ([4]; 50 mg/mL aCgn, 20 mM sodium citrate pH 5, maximum dendrimer 0.2 mol/L) was −8.1 ± 3.6 mol/mol, the “Γexp preferential interaction coefficient of aCgn” value [4] was −1.5 and the “Γexp preferential interaction coefficient of aCgn” value ([4]; listed as chloride salt) was −1.5±0.7.

In the case of OCC(O)CO [Glycerol, reference compound], the “Con A t95/t95” value (Concanavalin A (Con A)) is reported as 1.3.

In the case of O=S(=O)([O-])[O-].[Na+].[Na+] [Na2SO4, sodium sulfate, reference compound], the “aCgn t95/t95” value [1] is reported as 3.1.

With OC[C@H]1O[C@@](CO)(O[C@H]2O[C@H](CO)[C@@H](O)[C@H](O)[C@H]2O)[C@@H](O)[C@@H]1O [Sucrose, reference compound] the “aCgn t95/t95” value [1] was 1.9.

With CC(=O)O [acetate] the “aCgn aggregation suppression compared with other salt forms / generations (FIG. 5, 6, 8)” value [1] was “moderately improves the performance; also recorded: only improved slightly”.

In the case of “Generation 1 PAMAM Dendrimer, Ethylene Diamine Core, with Guanidinium Chloride Surface Groups [G1-Gdn]”, the “rate of aCgn monomer loss compared to the reference solution” value [1] is reported as “large increase in the rate of aggregation”.

— patent publication US9410142B2, “Dendrimer-based excipients for the attenuation of protein aggregation” (Massachusetts Institute of Technology, priority 2010, dated 2016)
